Like-named read-outs stand apart in the source and are kept apart here.
Key:
Type in all cases: in vivo
wild oat (Avena fatua) = experiment: Test B postemergence; conditions: Avena fatua, post-emergence
Method in brief: (§1)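 Scores reflect visual comparison with untreated controls, where 0 means no effect and 100 complete control. Plants stayed 13 to 15 days in the greenhouse after pre- or postemergence treatment with compounds carried in a non-phytotoxic solvent and surfactant.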

[1] = system: blackgrass (Alopecurus myosuroides); experiment: Test B postemergence; conditions: Alopecurus myosuroides, post-emergence
Method in brief: as §1

[2] = system: lambsquarters (Chenopodium album); experiment: Test B pre/postemergence; conditions: Chenopodium album, post-emergence, Postemergence
Method in brief: as §1

[3] = system: pigweed (Amaranthus retroflexus); experiment: Test B pre/postemergence; conditions: Amaranthus retroflexus; for pest or weed control at 62 g/ha: 62 g ai/ha; for pest or weed control at 250 g/ha: 250 g ai/ha
Method in brief: as §1

[4] = system: wheat (Triticum aestivum); experiment: Test B pre/postemergence; conditions: Triticum aestivum; for plant injury at 62 g/ha: 62 g ai/ha; for plant injury at 250 g/ha: 250 g ai/ha
Method in brief: as §1

[5] = system: velvetleaf (Abutilon theophrasti); experiment: Test B pre/postemergence; conditions: Abutilon theophrasti; for pest or weed control at 62 g/ha: 62 g ai/ha; for pest or weed control at 250 g/ha: 250 g ai/ha
Method in brief: as §1

[6] = system: Surinam grass (Brachiaria decumbens); experiment: Test B pre/postemergence; conditions: Urochloa decumbens; for pest or weed control at 62 g/ha: 62 g ai/ha; for pest or weed control at 250 g/ha: 250 g ai/ha
Method in brief: as §1

[7] = system: barnyardgrass (Echinochloa crus-galli); experiment: Test B pre/postemergence; conditions: Echinochloa crus-galli; for pest or weed control at 62 g/ha: 62 g ai/ha; for pest or weed control at 250 g/ha: 250 g ai/ha
Method in brief: as §1

[8] = system: morningglory (Ipomoea coccinea); experiment: Test B pre/postemergence; conditions: Ipomoea; for pest or weed control at 62 g/ha: 62 g ai/ha; for pest or weed control at 250 g/ha: 250 g ai/ha
Method in brief: as §1

[9] = system: giant foxtail (Setaria faberii); experiment: Test B pre/postemergence; conditions: Setaria faberi; for pest or weed control at 62 g/ha: 62 g ai/ha; for pest or weed control at 250 g/ha: 250 g ai/ha
Method in brief: as §1

corn (Zea mays) = experiment: Test B pre/postemergence; conditions: Zea mays; for Corn plant response rating (crop injury, 0 = no effect, 100 = complete kill) at 250 g/ha: 250 g ai/ha
Method in brief: as §1

[10] = system: cocklebur (Xanthium strumarium); experiment: Test B pre/postemergence; conditions: Xanthium strumarium; for pest or weed control at 62 g/ha: 62 g ai/ha; for pest or weed control at 250 g/ha: 250 g ai/ha
Method in brief: as §1

[11] = system: crabgrass (Digitaria sanguinalis); experiment: Test B pre/postemergence; conditions: Digitaria sanguinalis; for pest or weed control at 62 g/ha: 62 g ai/ha; for pest or weed control at 250 g/ha: 250 g ai/ha
Method in brief: as §1

[12] = pre-emergence, Preemergence, scale 0 to 100 (0 no effect, 100 complete control), read-out: Plant response rating, Wheat
[13] = pre-emergence, Preemergence, scale 0 to 100 (0 no effect, 100 complete control), read-out: Plant response rating, Barnyardgrass

CCOC(=O)c1nc(C2CC2)nc(NC(C)=O)c1Br [Compound 53]
pest or weed control at 62 g/ha (wild oat (Avena fatua); 62 g ai/ha, scale 0 to 100 (0 no effect, 100 complete control), read-out: Oat, Wild plant response rating): 30%
pest or weed control at 250 g/ha (wild oat (Avena fatua); 250 g ai/ha, scale 0 to 100, read-out: Plant response rating, Oat, Wild): 60%
pest or weed control at 62 g/ha ([1]; 62 g ai/ha, scale 0 to 100 (0 no effect, 100 complete control), read-out: Blackgrass plant response rating): 20%
pest or weed control at 250 g/ha ([1]; 250 g ai/ha, scale 0 to 100, read-out: Plant response rating, Blackgrass): 60%
pest or weed control at 62 g/ha ([2]; 62 g ai/ha, scale 0 to 100 (0 no effect, 100 complete control), read-out: Lambsquarters plant response rating): 90%
pest or weed control at 250 g/ha ([2]; 250 g ai/ha, scale 0 to 100, read-out: Plant response rating, Lambsquarters): 100%
pest or weed control at 62 g/ha ([3]; post-emergence, Postemergence, scale 0 to 100 (0 no effect, 100 complete control), read-out: Pigweed plant response rating): 80%
pest or weed control at 250 g/ha ([3]; post-emergence, Postemergence, scale 0 to 100, read-out: Plant response rating, Pigweed): 100%
pest or weed control at 62 g/ha ([3]; pre-emergence, Preemergence, scale 0 to 100, 0 no effect, 100 complete control, read-out: Plant response rating, Pigweed): 60%
pest or weed control at 250 g/ha ([3]; pre-emergence, Preemergence, scale 0 to 100 (0 no effect, 100 complete control), read-out: Plant response rating, Pigweed): 100%
plant injury at 62 g/ha ([4]; post-emergence, Postemergence, scale 0 to 100 (0 no effect, 100 complete control), read-out: Wheat plant response rating): 30%
plant injury at 250 g/ha ([4]; post-emergence, Postemergence, scale 0 to 100, read-out: Plant response rating, Wheat): 60%
plant injury at 62 g/ha [4, 12]: 0%
plant injury at 250 g/ha [4, 12]: 40%
pest or weed control at 62 g/ha ([5]; post-emergence, Postemergence, scale 0 to 100 (0 no effect, 100 complete control), read-out: Velvetleaf plant response rating): 40%
pest or weed control at 250 g/ha ([5]; post-emergence, Postemergence, scale 0 to 100, read-out: Plant response rating, Velvetleaf): 80%
pest or weed control at 62 g/ha ([5]; pre-emergence, Preemergence, scale 0 to 100, 0 no effect, 100 complete control, read-out: Plant response rating, Velvetleaf): 20%
pest or weed control at 250 g/ha ([5]; pre-emergence, Preemergence, scale 0 to 100 (0 no effect, 100 complete control), read-out: Plant response rating, Velvetleaf): 90%
pest or weed control at 62 g/ha ([6]; post-emergence, Postemergence, scale 0 to 100 (0 no effect, 100 complete control), read-out: Surinam Grass plant response rating): 10%
pest or weed control at 250 g/ha ([6]; post-emergence, Postemergence, scale 0 to 100, read-out: Plant response rating, Surinam Grass): 50%
pest or weed control at 250 g/ha ([6]; pre-emergence, Preemergence, scale 0 to 100 (0 no effect, 100 complete control), read-out: Plant response rating, Surinam Grass): 30%
pest or weed control at 62 g/ha ([6]; pre-emergence, Preemergence, scale 0 to 100, 0 no effect, 100 complete control, read-out: Plant response rating, Surinam Grass): 0%
pest or weed control at 62 g/ha ([7]; post-emergence, Postemergence, scale 0 to 100 (0 no effect, 100 complete control), read-out: Barnyardgrass plant response rating): 80%
pest or weed control at 250 g/ha ([7]; post-emergence, Postemergence, scale 0 to 100, read-out: Plant response rating, Barnyardgrass): 90%
pest or weed control at 62 g/ha [7, 13]: 0%
pest or weed control at 250 g/ha [7, 13]: 70%
pest or weed control at 62 g/ha ([8]; post-emergence, Postemergence, scale 0 to 100 (0 no effect, 100 complete control), read-out: Morningglory plant response rating): 90%
pest or weed control at 250 g/ha ([8]; post-emergence, Postemergence, scale 0 to 100, read-out: Plant response rating, Morningglory): 90%
pest or weed control at 62 g/ha ([8]; pre-emergence, Preemergence, scale 0 to 100, 0 no effect, 100 complete control, read-out: Plant response rating, Morningglory): 90%
pest or weed control at 250 g/ha ([8]; pre-emergence, Preemergence, scale 0 to 100 (0 no effect, 100 complete control), read-out: Plant response rating, Morningglory): 100%
pest or weed control at 62 g/ha ([9]; post-emergence, Postemergence, scale 0 to 100 (0 no effect, 100 complete control), read-out: Foxtail, Giant plant response rating): 30%
pest or weed control at 250 g/ha ([9]; post-emergence, Postemergence, scale 0 to 100, read-out: Plant response rating, Foxtail, Giant): 70%
pest or weed control at 250 g/ha ([9]; pre-emergence, Preemergence, scale 0 to 100 (0 no effect, 100 complete control), read-out: Plant response rating, Foxtail, Giant): 50%
pest or weed control at 62 g/ha ([9]; pre-emergence, Preemergence, scale 0 to 100, 0 no effect, 100 complete control, read-out: Plant response rating, Foxtail, Giant): 0%
plant injury at 62 g/ha (corn (Zea mays); post-emergence, Postemergence, 62 g ai/ha, scale 0 to 100 (0 no effect, 100 complete control), read-out: Corn plant response rating): 0%
Corn plant response rating (crop injury, 0 = no effect, 100 = complete kill) at 250 g/ha (corn (Zea mays); post-emergence, Postemergence, scale 0 to 100): 70%
Corn plant response rating (crop injury, 0 = no effect, 100 = complete kill) at 62 g/ha (corn (Zea mays); pre-emergence, Preemergence, 62 g ai/ha, scale 0 to 100, 0 no effect, 100 complete control): 0%
Corn plant response rating (crop injury, 0 = no effect, 100 = complete kill) at 250 g/ha (corn (Zea mays); pre-emergence, Preemergence, scale 0 to 100 (0 no effect, 100 complete control)): 0%
pest or weed control at 62 g/ha ([10]; post-emergence, Postemergence, scale 0 to 100 (0 no effect, 100 complete control), read-out: Cocklebur plant response rating): 50%
pest or weed control at 250 g/ha ([10]; post-emergence, Postemergence, scale 0 to 100, read-out: Plant response rating, Cocklebur): 90%
pest or weed control at 62 g/ha ([10]; pre-emergence, Preemergence, scale 0 to 100, 0 no effect, 100 complete control, read-out: Plant response rating, Cocklebur): 60%
pest or weed control at 250 g/ha ([10]; pre-emergence, Preemergence, scale 0 to 100 (0 no effect, 100 complete control), read-out: Plant response rating, Cocklebur): 100%
pest or weed control at 62 g/ha ([11]; post-emergence, Postemergence, scale 0 to 100 (0 no effect, 100 complete control), read-out: Crabgrass plant response rating): 0%
pest or weed control at 250 g/ha ([11]; post-emergence, Postemergence, scale 0 to 100, read-out: Plant response rating, Crabgrass): 30%
pest or weed control at 62 g/ha ([11]; pre-emergence, Preemergence, scale 0 to 100, 0 no effect, 100 complete control, read-out: Plant response rating, Crabgrass): 0%
pest or weed control at 250 g/ha ([11]; pre-emergence, Preemergence, scale 0 to 100 (0 no effect, 100 complete control), read-out: Plant response rating, Crabgrass): 50%
